From patent US9388171B2, “Serine/threonine kinase inhibitors” (Array BioPharma Inc., priority 2012, dated 2016)
Like-named read-outs stand apart in the source and are kept apart here.

Columns and labels:
[1] = biological target: human ERK-2 (Mitogen Activated Kinase 1) (Homo sapiens (Human), UniProt P28482); assay: ERK-2 Enzymatic Assay; type: biochemical
Procedure: Compounds were tested in an enzymatic assay using human ERK-2 (Mitogen Activated Kinase 1), recombinantly expressed as an n-terminal 6-His fusion protein in E. coli and corresponding to a 8-360. The substrate used was the fluorescent Omnia peptide S/T17 (Invitrogen of Carlsbad, Calif.; Cat. KNZ1171C). Test compounds were diluted in DMSO in 3-fold serial dilutions at 100× final concentrations. […] The assay was run at ambient temperature in a white 384-well polypropylene plate (Nunc, Inc of Naperville, Ill.; Cat. 267462) collecting data every 50 seconds for approximately 30 minutes on an Envision plate reader (PerkinElmer, Inc. of Waltham, Mass.); Excitation 340 nm/Emission 495 nm. The data collected from each well was fit to a straight line, and the resulting rates were used to calculate percent of control. Percent of control was plotted against compound concentration, and IC50 values were determined using a four-parameter fit. Representative data is in TABLE 3 (infra).

[2] = test system: PMA-stimulated P90RSK(Ser380) phosphorylation in HepG2 cells; assay: Cellular P90RSK(Ser380) Phosphorylation Assay; type: cell-based; conditions: Homo sapiens, 1.5 hour compound incubation, PMA 100 ng/mL
Procedure: Cellular P90RSK(Ser380) Phosphorylation Assay
Inhibition of PMA-stimulated P90RSK(Ser380) phosphorylation was determined by the following in vitro cellular mechanistic assay, which comprises incubating cells with a compound for 1.5 hours and quantifying fluorescent pP90RSK(Ser380) signal on fixed cells and normalizing to GAPDH signal.
Materials and Methods: HepG2 cells were obtained from ATCC and grown in DMEM supplemented with 10% fetal bovine serum. Cells were plated in 96-well plates at 35,000 cells/well and allowed to attach overnight at 37° C./5% CO2. Diluted compounds were then added at a final concentration of 0.5% DMSO. After 1.5 hour compound incubation, cells were stimulated with the addition of PMA (phorbol 12-myristate 13-acetate) at a final concentration of 100 ng/mL; the PMA stimulation was a 30-minute incubation at 37° C./5% CO2. After the 30-minute PMA stimulation, cells were washed with PBS and fixed in 3.7% formaldehyde in PBS at room temperature for 15-20 minutes. This was followed by another wash in PBS and then permeabilization in 100% MeOH at room temperature for 10-15 minutes. Following the permeabilization incubation, cells were washed in PBS/0.05% Tween-20, followed by a block in Odyssey blocking buffer (LI-COR Biosciences) for at least 1 hour. […] Both secondary antibodies were used at a 1:1000 dilution. Cells were then washed and analyzed for fluorescence at both wavelengths using the Odyssey Infrared Imaging System (LI-COR Biosciences). Phosphorylated P90RSK(Ser380) signal was normalized to GAPDH signal.

[3] = 25 uM ATP, Omnia peptide S/T17, read-out: Erk Enzymatic Assay IC50

human ERK-2 (Mitogen Activated Kinase 1), sequence (P28482 8-360): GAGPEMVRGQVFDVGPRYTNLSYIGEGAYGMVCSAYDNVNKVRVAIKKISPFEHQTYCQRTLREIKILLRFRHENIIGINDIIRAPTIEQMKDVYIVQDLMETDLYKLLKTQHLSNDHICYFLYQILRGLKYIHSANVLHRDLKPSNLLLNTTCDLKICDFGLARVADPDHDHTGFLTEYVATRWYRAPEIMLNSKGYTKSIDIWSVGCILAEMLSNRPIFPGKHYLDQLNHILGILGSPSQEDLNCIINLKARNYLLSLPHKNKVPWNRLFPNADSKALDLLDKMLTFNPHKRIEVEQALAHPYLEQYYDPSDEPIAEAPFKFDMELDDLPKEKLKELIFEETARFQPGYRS

Molecule COc1ccc([C@H](NC(=O)c2ccc3cnc(N[C@H]4CCOC4)cc3n2)c2cnn(C)c2)cc1F (single isomer, unassigned) [I-52] has an IC50 ([1]; read-out: ERK IC50) of 1.27 nM.

In the case of COc1ccc([C@H](NC(=O)c2ccc3cnc(N[C@@H]4CCOC4)cc3n2)c2cnn(C)c2)cc1F (single isomer, unassigned) [I-53], the IC50 ([1]; read-out: ERK IC50) is reported as 2.75 nM.

In the case of O=C(N[C@H](CO)c1ccc(Cl)c(F)c1)c1ccc2cnc(NC3CCOCC3)cc2n1 [I-5, 7-(Tetrahydro-pyran-4-ylamino)-[1,6]naphthyridine-2-carboxylic acid [(S)-1-(4-chloro-3-fluoro-phenyl)-2-hydroxy-ethyl]-amide], the IC50 [2] is reported as 16.3 nM and the IC50 [1, 3] is reported as 4.04 nM.

In the case of CC[C@@H](NC(=O)c1ccc2cnc(NC3CCOCC3)cc2n1)c1ccc(OC)c(F)c1 [I-6, 7-(Tetrahydro-pyran-4-ylamino)-[1,6]naphthyridine-2-carboxylic acid [(R)-1-(3-fluoro-4-methoxy-phenyl)-propyl]-amide], the IC50 [2] is reported as 5.96 nM and the IC50 [1, 3] is reported as 2.1 nM.

Cn1nccc1Nc1cc2nc(C(=O)N[C@H](CO)c3ccc(Cl)c(F)c3)ccc2cn1 [I-8, 7-(2-Methyl-2H-pyrazol-3-ylamino)-[1,6]naphthyridine-2-carboxylic acid [(S)-1-(4-chloro-3-fluoro-phenyl)-2-hydroxy-ethyl]-amide] was tested, and the IC50 [2] was 9.84 nM.

O=C(NCc1ccc(Cl)c(F)c1)c1ccc2cnc(NC3CCOCC3)cc2n1 [I-11, 7-(Tetrahydro-pyran-4-ylamino)-[1,6]naphthyridine-2-carboxylic acid 4-chloro-3-fluoro-benzylamide] showed an IC50 [2] of 98.9 nM and an IC50 [1, 3] of 3.43 nM.

Work on COc1ccc([C@H](NC(=O)c2ccc3cnc(NC4CCOCC4)cc3n2)c2cnn(C)c2)cc1F [I-21, (S)—N-((3-Fluoro-4-methoxyphenyl)(1-methyl-1H-pyrazol-4-yl)methyl)-7-(tetrahydro-2H-pyran-4-ylamino)-1,6-naphthyridine-2-carboxamide] yielded an IC50 [2] of 18.7 nM and an IC50 [1, 3] of 1.86 nM.

For COc1ccc([C@H](NC(=O)c2ccc3cnc(N[C@@H](C)CO)cc3n2)c2cnn(C)c2)cc1F [I-24, N—((S)-(3-Fluoro-4-methoxyphenyl)(1-methyl-1H-pyrazol-4-yl)methyl)-7-((S)-1-hydroxypropan-2-ylamino)-1,6-naphthyridine-2-carboxamide], the IC50 [2] was 37.8 nM and the IC50 [1, 3] was 1.15 nM.

For O=C(NCCc1ccccc1)c1ccc2cnc(NC3CCOCC3)cc2n1 [I-30, 7-(Tetrahydro-pyran-4-ylamino)-[1,6]naphthyridine-2-carboxylic acid phenethyl-amide], the IC50 [2] was 476 nM and the IC50 [1, 3] was 5.95 nM.

Molecule CC[C@@H](NC(=O)c1ccc2cnc(NC3CCOCC3)cc2c1)c1ccc(Cl)c(F)c1 [II-2, 3-(Tetrahydro-pyran-4-ylamino)-isoquinoline-6-carboxylic acid [(R)-1-(4-chloro-3-fluoro-phenyl)-propyl]-amide] has an IC50 [2] of 8.5 nM and an IC50 [1, 3] of 2.5 nM.

In the case of O=C(N[C@H](CO)c1ccc(Cl)c(F)c1)c1ccc2cnc(NC3CCOCC3)cc2c1 [II-12, 3-(Tetrahydro-pyran-4-ylamino)-isoquinoline-6-carboxylic acid [(S)-1-(4-chloro-3-fluoro-phenyl)-2-hydroxy-ethyl]-amide], the IC50 [2] is reported as 14.8 nM and the IC50 [1, 3] is reported as 2.8 nM.

Cn1cc([C@@H](NC(=O)c2ccc3cnc(Nc4ccnn4C)cc3c2)c2ccc(Cl)c(F)c2)cn1 [II-15, (S)—N-((4-Chloro-3-fluorophenyl)(1-methyl-1H-pyrazol-4-yl)methyl)-3-(1-methyl-1H-pyrazol-5-ylamino)isoquinoline-6-carboxamide] gave an IC50 [2] of 9.97 nM and an IC50 [1, 3] of 2.29 nM.

C[C@@H](CO)Nc1cc2cc(C(=O)NCc3cc4c(F)cccc4[nH]3)ccc2cn1 [II-23, 3-((S)-2-Hydroxy-1-methyl-ethylamino)-isoquinoline-6-carboxylic acid (4-fluoro-1H-indol-2-ylmethyl)-amide] showed an IC50 [2] of 65.1 nM and an IC50 [1, 3] of 20.2 nM.

Work on COc1ccc([C@H](NC(=O)c2ccc3cnc(Nc4cc(C)nn4C)cc3c2)c2cnn(C)c2)cc1F [II-37, (S)-3-(1,3-Dimethyl-1H-pyrazol-5-ylamino)-N-((3-fluoro-4-methoxyphenyl)(1-methyl-1H-pyrazol-4-yl)methyl)isoquinoline-6-carboxamide] yielded an IC50 [2] of 30.4 nM and an IC50 [1, 3] of 4.6 nM.

CC[C@@H](NC(=O)c1ccc2cnc(Nc3cc(C)nn3C)cc2c1)c1ccc(Cl)c(F)c1 [II-46, (R)—N-(1-(4-Chloro-3-fluorophenyl)propyl)-3-(1,3-dimethyl-1H-pyrazol-5-ylamino)isoquinoline-6-carboxamide] gave an IC50 [2] of 15.7 nM and an IC50 [1, 3] of 6.5 nM.

In the case of COc1ccc([C@@H]2CN(C)C[C@H]2NC(=O)c2ccc3cnc(Nc4cc(C)nn4C)cc3c2)cc1 [II-64, 3-((1,3-dimethyl-1H-pyrazol-5-yl)amino)-N-((3S,4R)-4-(4-methoxyphenyl)-1-methylpyrrolidin-3-yl)isoquinoline-6-carboxamide], the IC50 [2] is reported as 5.47 nM and the IC50 [1, 3] is reported as 2.68 nM.
